Results from patent US12376590B2, “Compositions comprising pyridine carboxylate herbicides and azole carboxylate safeners” (Corteva Agriscience LLC, priority 2018, dated 2025).

Key:
Assay in all cases: Greenhouse postemergence herbicidal safening trial, visual injury after 20-22 d
[1] = test system: pigweed (AMARE); assay type: in vivo, Amaranthus retroflexus
Excerpt: (§1) Greenhouse Trial Methodology—Evaluation of Postemergence Herbicidal Safening in Crops
(§2) Seeds of the desired test plant species were planted in a 90:10% v/v (volume/volume) mixture of PRO-MIX® BX (Premier Tech Horticulture, Quakertown, PA, USA) and PROFILE® GREENS GRADE™ (Profile Products LLC, Buffalo Grove, IL, USA) planting mixture, which typically has a pH of 5.2 to 6.2 and an organic matter content of at least 50 percent, in plastic pots with a surface area of 103.2 square centimeters (cm^2). When required to ensure good germination and healthy plants, a fungicide treatment and/or other chemical or physical treatment was applied. The plants were grown for 7-36 days (d) in a greenhouse with an approximate 14-hour (h) photo-period which was maintained at about 23° C. during the day and 22° C. during the night. Nutrients and water were added on a regular basis and supplemental lighting was provided with overhead metal halide 1000-Watt lamps as necessary. The plants were employed for testing when they reached the second or third true leaf stage.
(§3) Emulsifiable concentrates of each of each pyridine carboxylate herbicide (Compound A or Compound B) were prepared at 100 grams acid equivalent per liter (g ae/L). An aliquot of each emulsifiable concentrate was placed in a 25 mL glass vial and diluted with an aqueous mixture of 1.25% (v/v) ACTIROB® B esterified rapeseed oil (Bayer Crop Science, Research Triangle Park, NC, USA) or MSO® Concentrate with LECI-TECH® methylated soybean oil (Loveland Products, Loveland, CO, USA) to obtain concentrated stock solutions at the highest application rate for each herbicide, based upon a 12 milliliter (mL) application volume at a rate of 187 liters per hectare (L/ha). The concentrated stock solutions were further diluted with an aqueous mixture of 1.25% v/v ACTIROB® B or MSO® Concentrate with LECI-TECH® to obtain stock solutions at reduced application rates for each herbicide. Spray solutions of the herbicide combinations (Compound A or Compound B plus safener) were prepared by adding weighed amounts or aliquots of the azole carboxylate safener to the stock solutions of Compound A or Compound B to form 12-mL spray solutions in two-way combinations.
(§4) The spray solutions were applied to the plant material with an overhead Mandel track sprayer equipped with 8002E nozzles calibrated to deliver 187 L/ha over an application area of 0.503 square meters (m^2) at a spray height of 18 inches (43 centimeters (cm)) above the average plant canopy. Control plants were sprayed in the same manner with the solvent blank. All herbicide (component a) application rates are given as “g ae/ha” and all safener (component b) application rates are given as “g ai/ha.”
(§5) The treated plants and control plants were placed in a greenhouse as described above and watered by sub-irrigation to prevent wash-off of the test compounds. After 20-22 d, the condition of the test plants as compared with that of the control plants was determined visually and scored on a scale of 0 to 100 percent where 0 corresponds to no injury and 100 corresponds to complete kill.

[2] = test system: Chinese sprangletop (LEFCH); assay type: in vivo, Leptochloa chinensis
Excerpt: as §1, §2, §3, §4, §5

[3] = test system: winter wheat (TRZAW); assay type: in vivo, Triticum aestivum
Excerpt: as §1, §2, §3, §4, §5

[4] = test system: spring wheat (TRZAS); assay type: in vivo, Triticum aestivum; details: applied alone
Excerpt: as §1, §2, §3, §4, §5

[5] = test system: nutsedge (CYPES); assay type: in vivo, Cyperus esculentus
Excerpt: as §1, §2, §3, §4, §5

[6] = test system: kochia (KCHSC); assay type: in vivo, Kochia scoparia
Excerpt: as §1, §2, §3, §4, §5

[7] = test system: herbicide-resistant kochia (KCHSC-R); assay type: in vivo, Kochia scoparia
Excerpt: as §1, §2, §3, §4, §5

[8] = test system: barnyardgrass (ECHCG); assay type: in vivo, Echinochloa crus-galli
Excerpt: as §1, §2, §3, §4, §5

[9] = test system: Canada horseweed (ERICA); assay type: in vivo, Erigeron canadensis
Excerpt: as §1, §2, §3, §4, §5

[10] = test system: velvetleaf (ABUTH); assay type: in vivo, Abutilon theophrasti
Excerpt: as §1, §2, §3, §4, §5

[11] = test system: giant foxtail (SETFA); assay type: in vivo, Setaria faberi
Excerpt: as §1, §2, §3, §4, §5

[12] = test system: ivyleaf morningglory (IPOHE); assay type: in vivo, Ipomoea hederacea
Excerpt: as §1, §2, §3, §4, §5

[13] = test system: wild chamomile (MATCH); assay type: in vivo, Matricaria chamomilla; details: applied alone
Excerpt: as §1, §2, §3, §4, §5

[14] = test system: spring barley (HORVS); assay type: in vivo, Hordeum vulgare; details: applied alone
Excerpt: as §1, §2, §3, §4, §5

[15] = test system: Russian thistle (SASKR); assay type: in vivo, Salsola kali; details: applied alone
Excerpt: as §1, §2, §3, §4, §5

[16] = test system: winter rape (BRSNW); assay type: in vivo, Brassica napus
Excerpt: as §1, §2, §3, §4, §5

Measured: % visual injury Ob

CCOC(=O)C1=NN(c2ccc(Cl)cc2Cl)C(C)(C(=O)OCC)C1 (stereo not shown) [Mefenpyr-diethyl, mefenpyr-diethyl]
0%: [1]; Mefenpyr-diethyl 20 g/ha | [1]; Mefenpyr-diethyl 40 g/ha | [1]; Mefenpyr-diethyl 80 g/ha | [1]; applied alone, 20 g/ha | [1]; applied alone, 40 g/ha | [1]; applied alone, 80 g/ha | [1]; applied alone, 120 g/ha | [2]; Mefenpyr-diethyl 20 g/ha | [2]; Mefenpyr-diethyl 40 g/ha | [2]; Mefenpyr-diethyl 80 g/ha | [3]; Mefenpyr-diethyl 20 g/ha | [3]; Mefenpyr-diethyl 40 g/ha | [3]; Mefenpyr-diethyl 80 g/ha | [3]; applied alone, 20 g/ha | [3]; applied alone, 40 g/ha | [3]; applied alone, 80 g/ha | [3]; applied alone, 120 g/ha | [4]; 10 g/ha | [4]; 20 g/ha | [4]; 40 g/ha | [4]; 80 g/ha | [4]; 120 g/ha | [5]; Mefenpyr-diethyl 20 g/ha | [5]; Mefenpyr-diethyl 40 g/ha | [5]; Mefenpyr-diethyl 80 g/ha | [5]; applied alone, 20 g/ha | [5]; applied alone, 40 g/ha | [5]; applied alone, 80 g/ha | [5]; applied alone, 120 g/ha | [6]; Mefenpyr-diethyl 20 g/ha | [6]; Mefenpyr-diethyl 40 g/ha | [6]; Mefenpyr-diethyl 80 g/ha | [7]; Mefenpyr-diethyl 20 g/ha | [7]; Mefenpyr-diethyl 40 g/ha | [7]; Mefenpyr-diethyl 80 g/ha | [8]; Mefenpyr-diethyl 20 g/ha | [8]; Mefenpyr-diethyl 40 g/ha | [8]; Mefenpyr-diethyl 80 g/ha | [9]; Mefenpyr-diethyl 20 g/ha | [9]; Mefenpyr-diethyl 40 g/ha | [9]; Mefenpyr-diethyl 80 g/ha | [10]; Mefenpyr-diethyl 20 g/ha | [10]; Mefenpyr-diethyl 40 g/ha | [10]; Mefenpyr-diethyl 80 g/ha | [11]; Mefenpyr-diethyl 20 g/ha | [11]; Mefenpyr-diethyl 40 g/ha | [11]; Mefenpyr-diethyl 80 g/ha | [12]; Mefenpyr-diethyl 20 g/ha | [12]; Mefenpyr-diethyl 40 g/ha | [12]; Mefenpyr-diethyl 80 g/ha | [13]; 10 g/ha | [13]; 20 g/ha | [13]; 40 g/ha | [14]; 10 g/ha | [14]; 20 g/ha | [14]; 40 g/ha | [14]; 80 g/ha | [14]; 120 g/ha | [15]; 10 g/ha | [15]; 20 g/ha | [15]; 40 g/ha | [16]; Mefenpyr-diethyl 20 g/ha | [16]; Mefenpyr-diethyl 40 g/ha | [16]; Mefenpyr-diethyl 80 g/ha
